Reference: US12718601B2, “Using machine learning and/or neural networks to validate stem cells and their derivatives (2-D cells and 3-D tissues) for use in cell therapy and tissue engineered products” (The United States of America, as represented by the …, priority 2018, dated 2026)

What was measured:
Format in all cases: cell-based, human
iRPE [1] = assay: QBAM imaging of drug-treated iRPE (image absorbance); conditions: Healthy-1 and Healthy-2 iRPE, 8-week culture, weekly QBAM imaging
From the text: iRPE from each healthy donor (Healthy-1, Healthy-2) were imaged to determine if QBAM imaging affected cell maturation and could measure a large range in variation of iRPE pigmentation. This was done using three culture conditions: (1) control iRPE (no treatment), (2) iRPE treated with a known inducer of RPE maturation (Aphidicolin), and (3) iRPE treated with a known inhibitor of RPE maturation (hedgehog pathway inhibitor-4, HPI4).
Following differentiation, iRPE from donors Healthy-1 and Healthy-2 were placed on a 12-well 0.4 μm polycarbonate transwell plate (Corning, 3401) at a seeding density of 500,000 cells/ml in 0.5 ml. Only six of the 12 wells were used to minimize the time spent outside of the incubator while imaging. QBAM imaging and drug treatments started two or one weeks after seeding for Healthy-1 and Healthy-2 iRPE, respectively. For each culture plate, two of the six wells were treated with either 3.0 μmol/L Aphidicolin (Sigma Aldrich, A0781-10 MG), 30.0 μM HPI4 (Hedgehog Pathway Inhibitor 4, Sigma Aldrich, H4541-25 MG), or no additives to the RPEMM culture medium. RPEMM was changed three times a week and imaged on the same day every week immediately after medium change. […] For Healthy-2 and Healthy-1, a total of six plates were prepared, with six wells occupied in each plate, yielding 36 total wells imaged and analyzed. […]

iRPE [2] = assay: Electrophysiological measurements (TEP and TER) of iRPE monolayers; conditions: treated iRPE relative to control
Experimental: Electrical resistance measurements used for prediction of the iRPE monolayers were measured using an EVOM2 and EndOhm chamber (World Precision Instruments, EVOM2 and ENDOHM-12 respectively). Each line was measured for its resistance across 12 wells per treatment, per week. Intracellular transepithelial potential and resistance measurements in response to 1 mM potassium (Sigma Aldrich, P5405-1 KG) and 100 μM ATP (Sigma Aldrich, A9187-500 MG) were done identically to that of previous reports (Miyagishima et al., In Pursuit of Authenticity: Induced Pluripotent Stem Cell-Derived Retinal Pigment Epithelium for Clinical Applications, STEM CELLS Transl. Med. 5, 1562-1574 (2016)). Briefly, RPE monolayer cultures derived from iPSC lines were mounted on a modified “Ussing” chamber as described previously (Maminishkis et al., The P2Y2 Receptor Agonist INS37217 Stimulates RPE Fluid Transport In Vitro and Retinal Reattachment, Rat. Invest. Ophthalmol. Vis. Sci. 43, 3555-3566 (2002); Peterson et al., Extracellular ATP Activates Calcium Signaling, Ion, and Fluid Transport in Retinal Pigment Epithelium, J. Neurosci. 17, 2324-2337 (1997)). […] The signals from intracellular microelectrodes were referenced to the basal bath to measure the basolateral membrane potential (Vb) and the apical membrane potential (Va) was calculated by the equation: […]. […]

iRPE [3] = assay: Single cell image features from DNN-S segmented QBAM images of drug-treated iRPE; conditions: for CPI_IntegratedIntensityEdge.K (Intensity 10), Mean / ML_MinIntensity.Mean (Intensity 1), Mean: Healthy-2 iRPE, 3.0 μmol/L Aphidicolin or 30.0 μM HPI4
Experimental: QBAM imaging and live cell segmentation allows for hundreds of cell image features to be measured and tracked non-invasively on individual cells throughout iRPE maturation. Thus, the trained DNN-S was used to segment QBAM images of living iRPE (Healthy-1 and Healthy-2 donors) treated with Aphidicolin, HPI-4, or nothing (control). Previously published cell image features and intensity metrics known to correlate to RPE maturation and health were then assessed for significance. […] Importantly, this technique allows for unprecedented hierarchical granularity to the data; enabling not just whole well “bulk” tissue measurements, but also as a function of field of view or at an individual cell level Clustering of treatments based off of two features known to be important to RPE maturation and health, cell area and mean cell intensity were performed. Cell minimum intensity, a new metric related to iRPE function identified using SML, is described further below.
Following differentiation, iRPE from donors Healthy-1 and Healthy-2 were placed on a 12-well 0.4 μm polycarbonate transwell plate (Corning, 3401) at a seeding density of 500,000 cells/ml in 0.5 ml. Only six of the 12 wells were used to minimize the time spent outside of the incubator while imaging. QBAM imaging and drug treatments started two or one weeks after seeding for Healthy-1 and Healthy-2 iRPE, respectively. For each culture plate, two of the six wells were treated with either 3.0 μmol/L Aphidicolin (Sigma Aldrich, A0781-10 MG), 30.0 μM HPI4 (Hedgehog Pathway Inhibitor 4, Sigma Aldrich, H4541-25 MG), or no additives to the RPEMM culture medium. RPEMM was changed three times a week and imaged on the same day every week immediately after medium change. To prevent the culture plate lid from fogging during imaging, culture medium in wells were replaced with room temperature RPEMM (with drugs if needed) immediately before imaging since room temperature medium minimized condensation. RPEMM without drug was added to a well without any cells in it to capture the bright reference image for QBAM imaging. For each well, a 4×3 grid of overlapping images were captured (10-15% image overlap) for image stitching using a Zeiss AxioImager M2 microscope with a 10× objective. For Healthy-2 and Healthy-1, a total of six plates were prepared, with six wells occupied in each plate, yielding 36 total wells imaged and analyzed. The iRPE from AMD samples were previously reported by Sharma et al (Sharma et al., 2018), and the iRPE from OCA donors were cultured as described above, but were only imaged after they had matured and were fixed with PFA. In total five well replicates of OCA8, six replicates from OCA9, four replicates of OCA26, eight replicates of OCA71, and four replicates of OCA103 were imaged. For AMD data 1 replicate of AMD1 Clone A, 5 replicates of AMD1 Clone B, 1 Replicate of AMD2 Clone A, 5 replicates of AMD2 Clone B, 1 replicate of AMD2 Clone C, 1 replicate of AMD3 Clone A, 5 replicates of AMD3 Clone B, and 1 replicate of AMD3 Clone C were imaged.
No preprocessing was performed on QBAM images before they were processed with the DNN-S. The structure of the DNN-S was the same as that used to segment the fluorescent images, except the input image had three channels instead of one. The three channels were three QBAM images captured of the same field of view, but each QBAM image was captured at a different wavelength (488 nm, 561 nm, and 633 nm).
In order to extract as many cell-level features as possible, multiple widely were leveraged used image libraries for feature extraction that have been integrated into WIPP. While the feature values for the same feature definitions might vary, they provide insights on the amount of variation introduced not only by image acquisition but also by image processing. […]

iRPE [4] = assay: mRNA and protein expression of maturation markers in iRPE; conditions: Aphidicolin treated iRPE compared with HPI4 treated iRPE
Experimental: Tissue preparation for immunohistochemistry was done by placing wells in 4% (mass/volume) paraformaldehyde (Electron Microscopy Science, 157-4-100) for 20 minutes. Immunohistochemistry blocking solution (IBS) consisted of 500 ml of 1× DPBS (Dulbecco's phosphate-buffered saline, Life Technologies, 14190250), 5% (mass/volume) bovine serum albumin (Sigma Aldrich, A3311), 0.5% (mass/volume) Triton X-100 (Sigma Aldrich, X100-100ML), and 0.5% (mass/volume) TWEEN20 (Sigma Aldrich, P2287-100ML). Fixed cells were washed with IBS three times and permeabilized for 2 hours with IBS at room temperature. Cells were then stained with the following primary antibody for 1 hour at room temperature: RPE65 (anti-RPE65 monoclonal antibody [1:300, Abcam, ab13826), Ezrin (monoclonal anti-ezrin antibody, 1:100, Sigma Aldrich, E8897), or GT335 (anti-polyglutamylation modification monoclonal antibody, 1:1000, Adipogen, AG-20B-0020). […] RNA was quantified using an ND-1000 spectrophotometer (Nanodrop Technologies) and the manufacturers protocol. cDNA synthesis was performed using the Script cDNA Synthesis Kit (Bio-Rad, 1708891) and the manufacturer provided protocols. […] An HPI4 well had to be excluded due to extremely low RNA extraction from the well and an insufficient quantity of cDNA being amplified to measured. […] Data was analyzed using R software (R Development Core Team, 2011).

## C[C@@]1(CO)[C@H](O)CC[C@@]2(C)[C@H]1CC[C@H]1C[C@@H]3C[C@@]12CC[C@]3(O)CO [Aphidicolin]
iRPE [1]
  image absorbance over time: increasing image absorbance
iRPE [2]
  baseline electrical response (TEP and TER) and its change to 1 mM potassium (K+) or 100 μM ATP: significantly greater
iRPE [3]; week 2
  CPI_IntegratedIntensityEdge.K (Intensity 10), Mean: 5.87
  ML_MinIntensity.Mean (Intensity 1), Mean: 144.67
iRPE [3]; week 3
  CPI_IntegratedIntensityEdge.K (Intensity 10), Mean: 6.07
  ML_MinIntensity.Mean (Intensity 1), Mean: 204.31
iRPE [3]; week 4
  CPI_IntegratedIntensityEdge.K (Intensity 10), Mean: 5.3
iRPE [3]; week 5
  CPI_IntegratedIntensityEdge.K (Intensity 10), Mean: 5.59
  ML_MinIntensity.Mean (Intensity 1), Mean: 183.77
iRPE [3]; week 6
  CPI_IntegratedIntensityEdge.K (Intensity 10), Mean: 4.76
  ML_MinIntensity.Mean (Intensity 1), Mean: 185.15
iRPE [3]; week 7
  CPI_IntegratedIntensityEdge.K (Intensity 10), Mean: 4.53
  ML_MinIntensity.Mean (Intensity 1), Mean: 180.84
iRPE [4]
  mRNA and protein expression of maturation markers: Higher

## N#CC(=C(O)c1ccc(Cl)cc1Cl)c1nc2ccccc2c(=O)[nH]1 [HPI4]
iRPE [1]
  image absorbance over time: decreasing trend in absorbance
iRPE [2]
  baseline electrical response (TEP and TER) and its change to 1 mM potassium (K+) or 100 μM ATP: significantly lower
iRPE [3]; Healthy-1 and Healthy-2 iRPE, across all time points, p<0.001
  mean number of neighbors each iRPE cell had: significantly lower
iRPE [3]; week 2
  CPI_IntegratedIntensityEdge.K (Intensity 10), Mean: 5.11
  ML_MinIntensity.Mean (Intensity 1), Mean: 141.81
iRPE [3]; week 3
  CPI_IntegratedIntensityEdge.K (Intensity 10), Mean: 6.45
  ML_MinIntensity.Mean (Intensity 1), Mean: 179.97
iRPE [3]; week 4
  CPI_IntegratedIntensityEdge.K (Intensity 10), Mean: 6.45
  ML_MinIntensity.Mean (Intensity 1), Mean: 104.78
iRPE [3]; week 5
  CPI_IntegratedIntensityEdge.K (Intensity 10), Mean: 7.21
  ML_MinIntensity.Mean (Intensity 1), Mean: 133.78
iRPE [3]; week 6
  CPI_IntegratedIntensityEdge.K (Intensity 10), Mean: 8.06
  ML_MinIntensity.Mean (Intensity 1), Mean: 126.02
iRPE [3]; week 7
  CPI_IntegratedIntensityEdge.K (Intensity 10), Mean: 8.06
  ML_MinIntensity.Mean (Intensity 1), Mean: 110.26
